Among the data in patent US8163756B2 (priority 2004, dated 2012) are IC50 values, retold here.

One assay deals with B-Raf(V599E) kinase (Homo sapiens, UniProt P15056, V600E). The assay can be described thus: B-Raf(V599E) kinase assay B1 (construct 1, MEK1 substrate, coupled spectrophotometric). The assay is classed as biochemical. Here is the method: The test compounds were incubated with the reaction mixtureat 30° C. for 2 h. […] The reaction rate was calculated using the […] time frame. […] IC50 values were calculated from a series of percent inhibition values determined at a range of inhibitor concentrations using software routines as implemented in the GraphPad Prism software package.
Chain of B-Raf(V599E) kinase (P15056 with tags, fused parts or gaps V600E): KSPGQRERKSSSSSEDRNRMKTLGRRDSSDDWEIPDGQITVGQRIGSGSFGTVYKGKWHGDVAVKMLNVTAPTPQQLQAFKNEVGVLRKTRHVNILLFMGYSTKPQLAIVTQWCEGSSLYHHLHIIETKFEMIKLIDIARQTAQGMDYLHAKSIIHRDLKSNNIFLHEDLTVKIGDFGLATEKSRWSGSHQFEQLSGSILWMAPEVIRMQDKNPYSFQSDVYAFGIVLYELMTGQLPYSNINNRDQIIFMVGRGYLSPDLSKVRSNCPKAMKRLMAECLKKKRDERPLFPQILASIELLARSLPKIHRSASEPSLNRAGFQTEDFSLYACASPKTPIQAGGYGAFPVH

The target of another assay is T1, Abl kinase (Homo sapiens, UniProt P00519).
T1 sequence (P00519 229-512): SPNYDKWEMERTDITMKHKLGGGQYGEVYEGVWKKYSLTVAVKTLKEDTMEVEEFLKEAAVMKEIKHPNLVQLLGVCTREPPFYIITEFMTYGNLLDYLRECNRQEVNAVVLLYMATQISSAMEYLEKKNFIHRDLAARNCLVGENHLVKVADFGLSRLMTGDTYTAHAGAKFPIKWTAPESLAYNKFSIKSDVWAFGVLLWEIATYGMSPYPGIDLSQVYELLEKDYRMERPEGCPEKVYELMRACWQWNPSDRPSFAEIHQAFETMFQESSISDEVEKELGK
The assay can be described thus: Abl kinase assay A1 (pyruvate kinase/lactate dehydrogenase coupled, spectrophotometric). In kind it is biochemical. As to conditions: Method A1; read-out: Abl Data (IC50). Here is the method: IC50 values were calculated from a series of percent inhibition values determined at a range of inhibitor concentrations using software routines as implemented in the GraphPad Prism software package.

By IC50 is commonly meant the concentration that gives 50% inhibition. As for `CC(C)(C)c1cc(NC(=O)Nc2cc(F)c(F)c(F)c2)n(-c2cc(CO)c3ccccc3c2)n1` [Example 66, 1-(3-t-butyl-1-(4-(hydroxymethyl)naphthalen-2-yl)-1H-pyrazol-5-yl)-3-(3,4,5-trifluorophenyl)urea], the half-inhibitory concentration (IC50) on B-Raf(V599E) kinase amounted to 0.0085 µM; on Abl kinase it was 0.071 µM.

Consider `CC(C)(C)c1cc(NC(=O)Nc2cccc(Cl)c2Cl)n(-c2ccc3c(c2)C(O)CC3)n1` (centres unmarked) [Example 103, 1-[5-t-butyl-2-(3-hydroxy-indan-5-yl)-2H-pyrazol-3-yl]-3-(2,3-dichlorophenyl)urea], for which the IC50 on B-Raf(V599E) kinase was determined as 0.0045 µM; on Abl kinase it was 0.24 µM.

With `CC(C)(C)c1cc(NC(=O)Nc2cccc(Cl)c2Cl)n(-c2ccc3c(c2)N(S(C)(=O)=O)CC3)n1` [Example 113, 1-(3-t-butyl-1-(1-(methylsulfonyl)indolin-6-yl)-1H-pyrazol-5-yl)-3-(2,3-dichlorophenyl)urea], the IC50 against B-Raf(V599E) kinase was 0.0033 µM; at Abl kinase, 0.19 µM.

Take `COc1cccc(-n2nc(C(C)(C)C)cc2NC(=O)Nc2cc(Cl)cc(Cl)c2)c1` [Example 14, 1-(3-t-butyl-1-(3-methoxyphenyl)-1H-pyrazol-5-yl)-3-(3,5-dichlorophenyl)urea]: the concentration for half-maximal inhibition (IC50) at B-Raf(V599E) kinase came to 0.07 µM; at Abl kinase, 2.4 µM.

For `CC(C)(C)c1cc(NC(=O)Nc2cccc(F)c2F)n(-c2ccc3c(c2)CCNC3)n1` [Example 144, 1-(3-t-butyl-1-(1,2,3,4-tetrahydroiso-quinolin-6-yl)-1H-pyrazol-5-yl)-3-(2,3-difluorophenyl)-urea], the results for the IC50 on B-Raf(V599E) kinase and on Abl kinase were 0.0096 µM and 0.2 µM, respectively.

For the molecule `CC(C)(C)c1cc(NC(=O)Nc2cccc(Cl)c2Cl)n(-c2cc(CCN)c3ccccc3c2)n1` [Example 193, 1-(1-(4-(2-aminoethyl)naphthalen-2-yl)-3-t-butyl-1H-pyrazol-5-yl)-3-(2,3-dichlorophenyl)urea], the IC50 on B-Raf(V599E) kinase was determined as 0.0026 µM; on Abl kinase it was 0.081 µM.

With `CC(C)(C)c1cc(NC(=O)Nc2cccc(Cl)c2Cl)n(-c2cccc(CC(=O)NC[C@H](O)CO)c2)n1` [Example 36, 1-(3-t-butyl-1-(3-(2-((S)-2,3-dihydroxypropylamino)-2-oxoethyl)phenyl)-1H-pyrazol-5-yl)-3-(2,3-dichloro-phenyl)urea], the concentration for half-maximal inhibition (IC50) at Abl kinase was 0.72 µM.

Take `CCOC(=O)c1cc(-n2nc(C(C)(C)C)cc2NC(=O)Nc2cccc(Cl)c2Cl)cc2ccccc12` [Example 58, 3-{3-t-butyl-5-[3-(2,3-dichlorophenyl)ureido]-pyrazol-1-yl}naphthalene-1-carboxylic acid ethyl ester]: the IC50 on Abl kinase is 4.7 µM.

For `CC(C)(C)c1cc(NC(=O)Nc2ccc(Cl)cc2)n(-c2ccc3c(c2)CNCC3)n1` [Example 124, 1-[3-t-butyl-1-(1,2,3,4-tetrahydroisoquinolin-7-yl)-1H-pyrazol-5-yl]-3-(4-chloro-phenyl)urea], the IC50 was 0.173 µM at B-Raf(V599E) kinase and 1.4 µM at Abl kinase.

Take `CC(C)(C)c1cc(NC(=O)Nc2cccc(Cl)c2Cl)n(-c2cc(CC(=O)O)c3ccccc3c2)n1` [Example 77, 2-(3-(3-t-butyl-5-(3-(2,3-dichlorophenyl)-ureido)-1H-pyrazol-1-yl)naphthalen-1-yl)acetic acid]: the figures for the concentration for half-maximal inhibition (IC50) on B-Raf(V599E) kinase and at Abl kinase were 0.0039 µM and 0.26 µM, respectively.

Turning to `CC(C)(C)c1cc(NC(=O)Nc2ccc(F)cc2F)n(-c2cc(CC(N)=O)c3ccccc3c2)n1` [Example 82, 1-(1-(4-(2-amino-2-oxoethyl)naphthalen-2-yl)-3-t-butyl-1H-pyrazol-5-yl)-3-(2,4-difluorophenyl)urea], the half-inhibitory concentration (IC50) at B-Raf(V599E) kinase turned out to be 0.0059 µM; on Abl kinase, 0.36 µM.

With `CC(C)(C)c1cc(NC(=O)Nc2cccc(C(F)(F)F)c2)n(-c2cccc(C#N)c2)n1` [Example 11], at Abl kinase, the IC50 was found to be 5.1 µM.

For `CC(C)(C)c1cc(NC(=O)Nc2cc(F)cc(F)c2)n(-c2cc(CO)c3ccccc3c2)n1` [Example 59, 1-(3-t-butyl-1-(4-(hydroxymethyl)naphthalen-2-yl)-1H-pyrazol-5-yl)-3-(3,5-difluorophenyl)urea], the IC50 came to 0.0087 µM on B-Raf(V599E) kinase and 0.079 µM at Abl kinase.

Consider `CC(C)(C)c1cc(NC(=O)Nc2ccc(F)c(F)c2F)n(-c2ccc3c(c2)CCNC3)n1` [Example 147, 1-(3-t-butyl-1-(1,2,3,4-tetrahydroiso-quinolin-6-yl)-1H-pyrazol-5-yl)-3-(2,3,4-trifluorophenyl)-urea], for which the IC50 against B-Raf(V599E) kinase amounted to 0.01 µM; at Abl kinase, 0.14 µM.

For the molecule `Cc1ccc(NC(=O)Nc2cc(C(C)(C)C)nn2-c2ccc3c(c2)CCNC3)cc1Nc1ncccn1` [Example 142, 1-(3-t-butyl-1-(1,2,3,4-tetrahydro-isoquinolin-6-yl)-1H-pyrazol-5-yl)-3-(4-methyl-3-(pyrimidin-2-ylamino)phenyl)-urea], the IC50 at B-Raf(V599E) kinase amounted to 0.035 µM; at Abl kinase, 0.17 µM.

For `CC(C)(C)c1cc(NC(=O)Nc2ccc(F)c(F)c2F)n(-c2cc(CO)c3ccccc3c2)n1` [Example 62, 1-(3-t-butyl-1-(4-(hydroxylmethyl)naphthalen-2-yl)-1H-pyrazol-5-yl)-3-(2,3,4-trifluorophenyl)urea], the IC50 against B-Raf(V599E) kinase stood at 0.0032 µM; on Abl kinase, 0.11 µM.

In the case of `CC(C)(C)c1cc(NC(=O)Nc2ccc(F)cc2F)n(-c2cc(CO)c3ccccc3c2)n1` [Example 63, 1-(3-t-butyl-1-(4-(hydroxylmethyl)naphthalen-2-yl)-1H-pyrazol-5-yl)-3-(2,4-difluorophenyl)urea], the IC50 amounted to 0.004 µM against B-Raf(V599E) kinase and 0.3 µM on Abl kinase.

On to `CC(C)(C)c1cc(NC(=O)Nc2cc(F)cc(F)c2)n(-c2cc(CC(N)=O)c3ccccc3c2)n1` [Example 83, 1-(1-(4-(2-amino-2-oxoethyl)naphthalen-2-yl)-3-t-butyl-1H-pyrazol-5-yl)-3-(3,5-difluorophenyl)urea], for which the concentration for half-maximal inhibition (IC50) on B-Raf(V599E) kinase was 0.0085 µM; on Abl kinase, 0.087 µM.

For the molecule `CC(C)(C)c1cc(NC(=O)Nc2cc(F)c(F)c(F)c2)n(-c2cc(CC(=O)NCC(O)CO)c3ccccc3c2)n1` (centres unmarked) [Example 98], on Abl kinase, the 50% inhibitory concentration (IC50) stood at 0.034 µM.

As for `CC(C)(C)c1cc(NC(=O)Nc2cccc(Cl)c2Cl)n(-c2cccc(-c3cccnc3)c2)n1` [Example 276, 1-[5-t-butyl-2-(3-pyridin-3-yl-phenyl)-2H-pyrazol-3-yl]-3-(2,3-dichlorophenyl)urea], the values for the IC50 against B-Raf(V599E) kinase and on Abl kinase were 0.0049 µM and 2.3 µM, respectively.

Regarding `CC(C)(C)c1cc(NC(=O)Nc2cc(F)ccc2F)n(-c2cc(CC(=O)NC(CO)CO)c3ccccc3c2)n1` [Example 99, 1-(3-t-butyl-1-(4-(2-(1,3-dihydroxypropan-2-ylamino)-2-oxoethyl)naphthalen-2-yl)-1H-pyrazol-5-yl)-3-(2,5-difluorophenyl)urea], the half-inhibitory concentration (IC50) on Abl kinase worked out at 0.038 µM.

As for `CC(C)(C)c1cc(NC(=O)Nc2ccc3c(c2)OCO3)n(-c2cccc(C#N)c2)n1` [Example 6, 1-(benzo[d][1,3]dioxol-5-yl)-3-(3-t-butyl-1-(3-cyanophenyl)-1H-pyrazol-5-yl)urea], the 50% inhibitory concentration (IC50) on B-Raf(V599E) kinase was 0.18 µM; at Abl kinase it was 3 µM.

`CC(C)(C)c1cc(NC(=O)Nc2cccc(Br)c2)n(-c2cccc(CN)c2)n1` [Example 41, 1-(1-[3-(aminomethyl)phenyl]-3-t-butyl-1H-pyrazol-5-yl)-3-(3-bromophenyl)urea]: the IC50 against B-Raf(V599E) kinase amounted to 0.089 µM; on Abl kinase, 3.7 µM.

For the molecule `CC(C)(C)c1cc(NC(=O)Nc2cccc(Cl)c2Cl)n(-c2cccc(CC(=O)O)c2)n1` [Example 373, 2-(3-{3-t-butyl-5-[3-(2,3-dichlorophenyl)-ureido]-1H-pyrazol-1-yl}phenyl)acetic acid], the IC50 against B-Raf(V599E) kinase worked out at 0.0032 µM; on Abl kinase it was 3.5 µM.

As for `CC(C)(C)c1cc(NC(=O)Nc2cc(F)ccc2F)n(-c2cc(CC(N)=O)c3ccccc3c2)n1` [Example 87, 1-(1-(4-(2-amino-2-oxoethyl)naphthalen-2-yl)-3-t-butyl-1H-pyrazol-5-yl)-3-(2,5-difluorophenyl)urea], the concentration for half-maximal inhibition (IC50) at Abl kinase was determined as 0.073 µM.

For the molecule `CC(C)(C)c1cc(NC(=O)Nc2cccc(Cl)c2Cl)n(-c2cccc(CC(=O)NCCO)c2)n1` [Example 37, 1-(3-t-butyl-{1-[3-(2-hydroxyethylamino)-2-oxo-thyl]-phenyl}-1H-pyrazol-5-yl)-3-(2,3-dichlorophenyl)-urea], the values for the IC50 on B-Raf(V599E) kinase and on Abl kinase were 0.0057 µM and 1.4 µM, respectively.

With `CC(C)(C)c1cc(NC(=O)Nc2cccc(C#N)c2)n(-c2ccc3c(c2)CNCC3)n1` [Example 125, 1-(3-t-butyl-1-(1,2,3,4-tetrahydroisoquinolin-7-yl)-1H-pyrazol-5-yl)-3-(3-cyanophenyl)urea], the IC50 at Abl kinase came out at 0.18 µM.

Take `CC(C)(C)c1cc(NC(=O)Nc2ccc(C#N)cc2)n(-c2cc(CC(N)=O)c3ccccc3c2)n1` [Example 79, 1-(1-(4-(2-amino-2-oxoethyl)naphthalen-2-yl)-3-t-butyl-1H-pyrazol-5-yl)-3-(4-cyanophenyl)urea]: at Abl kinase, the IC50 came to 0.18 µM.

In the case of `COc1cccc(NC(=O)Nc2cc(C(C)(C)C)nn2-c2cccc(C#N)c2)c1` [Example 10], the IC50 at Abl kinase was 4.3 µM.

As to `CC(C)(C)c1cc(NC(=O)Nc2cccc(C#N)c2)n(-c2ccc3c(c2)CCNCC3)n1` [Example 167, 1-(3-t-butyl-1-(2,3,4,5-tetrahydro-1H-benzo[d]azepin-7-yl)-1H-pyrazol-5-yl)-3-(3-cyanophenyl)urea], the IC50 on Abl kinase was 0.31 µM.
